For series [1] the following is noted: immediately post-transplantation; cited from earlier work.
Series [2] is described as follows: 12 h plasma concentration/time profiles from six clinical studies of transplant patients receiving enteric coated mycophenolate salt (Myfortic). In kind it is in vivo, human. Conditions: for AUC(0-t): human, plasma, oral, enteric coated mycophenolate salt (Myfortic), read-out: MPA AUC0-12, mean and SD, measured. As to the method: 334, 12 h plasma concentration/time profiles (217 for de novo and 117 for stable patients) are available from six clinical studies of transplant patients receiving enteric coated composition containing mycophenolate salt (Myfortic®) as part of their immunosuppressive drug regimen. Using 20 randomly selected profiles, population PK models (two-compartment for stable patients and a one-compartment for de novo patients) are developed using a Bayesian approach (i.e. approach to statistics in which estimates are based on a synthesis of a prior distribution and current sample data) to estimate the model parameters. The remaining profiles are used to test and validate the models.

Where two headings read alike, the source gives them in different places.

Consider `COc1c(C)c2c(c(O)c1C/C=C(\C)CCC(=O)O)C(=O)OC2` [MPA, mycophenolic acid], for which the “optimal target MPA AUC0-12 suggested by previous controlled studies” value in series [1] is roughly 45000 ng·h/mL. For the same molecule, the “share of de novo patients below lower end of target range for MPA AUC0-12 (30 mg/L·h)” value in series [2] (fixed dose of 720 mg bid, during the two weeks after transplantation) came out at 50%. Moreover, the AUC(0-t) is 32200 ± 17500 ng·h/mL in series [2] (720 mg bid, de novo patients transplanted within the previous two weeks) and 65100 ± 26000 ng·h/mL in series [2] (stable patients).

Values taken from patent publication US20090327175A1, “PHARMACOKINETIC MODELING OF MYCOPHENOLIC ACID” (priority 2006, published 2009).
